In US7572765B2, “Conformationally constrained parathyroid hormone (PTH) analogs” (The General Hospital Corporation, priority 2001, dated 2009):
Square brackets hold non-standard residues; d marks the D form. Peptide text beside a SMILES is read from it. hArg = N=C(N)NCCCC[C@H](N)C(=O)O; Aib = CC(C)(N)C(=O)O

Columns and labels:
Assay type in all cases: cell-based
[1] = target: T1, wild-type human P1R (hP1R-WT) (Homo sapiens, UniProt Q03431); experiment: cAMP stimulation in COS-7 cells expressing hP1R-WT; conditions: for EC50 / cAMP EMax(obs.): hP1R-WT; for cAMP EMax(obs.): basal 10.3 ± 1.1, asterisk = plateau not attained
T1 construct: expressed in transfected cells; host or cells: COS-7 (transient, FuGENE 6)
T1 sequence (Q03431 27-593): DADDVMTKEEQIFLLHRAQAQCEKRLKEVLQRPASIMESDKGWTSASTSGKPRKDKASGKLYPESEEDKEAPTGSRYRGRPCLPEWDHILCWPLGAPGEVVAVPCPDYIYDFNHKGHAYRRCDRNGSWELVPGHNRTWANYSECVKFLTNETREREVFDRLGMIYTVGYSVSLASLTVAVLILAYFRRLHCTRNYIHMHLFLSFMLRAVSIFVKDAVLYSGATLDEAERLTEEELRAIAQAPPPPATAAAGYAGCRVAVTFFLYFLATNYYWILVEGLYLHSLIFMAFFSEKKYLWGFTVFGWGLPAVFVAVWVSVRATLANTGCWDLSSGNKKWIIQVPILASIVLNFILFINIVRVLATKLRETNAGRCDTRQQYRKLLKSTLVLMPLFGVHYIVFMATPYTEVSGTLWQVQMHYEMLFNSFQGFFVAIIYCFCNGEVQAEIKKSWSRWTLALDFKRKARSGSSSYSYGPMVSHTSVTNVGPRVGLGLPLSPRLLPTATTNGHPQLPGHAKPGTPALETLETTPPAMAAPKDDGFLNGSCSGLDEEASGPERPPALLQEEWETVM
Protocol: (§1) Cell Culture. The cell line HKRK-B28 (Takasu, H., et al., J. Bone Miner. Res. 14:11-20 (1999)) was derived from the porcine kidney cell line, LLC-PK1 by stable transfection with plasmid DNA encoding the human P1R and expresses ˜280,000 receptors per cell. These cells, as well as COS-7 cells and SaOS-2-B10 cells, were cultured at […] in T-75 flasks ([…]) in Dulbecco's modified Eagle's medium (DMEM) supplemented with fetal bovine serum (10%), penicillin G (20 units/ml), streptomycin sulfate (20 μg/ml) and amphotericin B (0.05 μg/ml) in a humidified atmosphere containing 5% CO2. Stock solutions of EGTA/trypsin and antibiotics were from GIBCO; fetal bovine serum was from Hyclone Laboratories (Logan, Utah). COS-7 cells sub-cultured in 24-well plates were transfected with plasmid DNA (200 ng per well) encoding the wild-type human P1R or truncated human P1R deleted for residues (24-181) (Shimizu, M., et al., J. Biol. Chem. 275:21836-21843 (2000)) that was purified by cesium chloride/ethidium bromide density gradient centrifugation, and FuGENE 6 transfection reagent (Roche Indianapolis Ind.) according to the manufacturer's recommended procedure. All cells, in 24-well plates, were treated with fresh media and shifted to 33° C. for 12 to 24 h prior to assay.
(§2) cAMP Stimulation. Stimulation of cells with peptide analogs was performed in 24-well plates. Cells were rinsed with 0.5 mL of binding buffer (50 mM Tris-HCI, […], 5 mM KCl, 2 mM CaCl2, 5% heat-inactivated horse serum, 0.5% fetal bovine serum, adjusted to pH 7.5 with HCl) and treated with 200 μL of cAMP assay buffer (Delbecco's modified Eagle's medium containing 2 mM 3-isobutyl-1-methylxanthine, 1 mg/mL bovine serum albumin, 35 mM Hepes-NaOH, pH 7.4) and 100 μL of binding buffer containing varying amounts of peptide analog (final volume=300 μL). The medium was removed after incubation for 30 to 60 minutes at room temperature, and the cells were frozen on dry ice, lysed with 0.5 mL 50 mM HCl, and refrozen ([…]). The cAMP content of the diluted lysate was determined by radioimmunoassay. The EC50 response values were calculated using nonlinear regression (see below).
(§3) Data Calculation. Calculations were performed using Microsoft® Excel. Nonlinear regression analyses of binding and cAMP dose-response data were performed using the four-parameter equation: yp=Min+[(Max−Min)/(1+(IC50/x)^slope)]. The Excel Solver function was utilized for parameter optimization, as described previously (Carter, P. H., et al., Endocrinology 140: 4972-4981 (1999); Bowen, W. P., and Jerman, J. C., Trends in Pharmacol. Sci. 16: 413-417 (1995)). Differences between paired data sets were statistically evaluated using a one-tailed Student's t-test, assuming unequal variances for the two sets.

[2] = target: T1, wild-type human P1R (hP1R-WT); experiment: Stimulation of inositol phosphate production (PLC) in COS-7 cells expressing hP1R-WT; conditions: for PLC EMAX(obs.) / EC50: hP1R-WT; for EC50: dash = no PLC response observed
Protocol: as §1
Stimulation of Inositol Phosphate Production. COS-7 cells transfected as above with P1R-WT were treated with serum-free, inositol-free DMEM containing 0.1% bovine serum albumin and [^3H]myo-inositol (NEN, Boston, Mass.) (2 μCi/mL) for 16 h prior to assay. At the time of the assay, the cells were rinsed with binding buffer containing LiCl (30 mM) and treated with the same buffer with or without a PTH analog. The cells were then incubated at 37° C. for 40 min, after which the buffer was removed and replaced by 0.5 mL of ice cold 5% trichloroacetic acid solution. After 3 h on ice, the lysate was collected and extracted twice with ethyl ether. The lysate was then applied to an ion exchange column (0.5 mL resin bed) and the total inositol phosphates were eluted as described previously (Berridge, M. J., et al., Biochem. J. 212:473-482 (1983)), and counted in liquid scintillation cocktail.

[3] = target: T2, P1R-delNt, truncated human P1R deleted for residues (24-181) (Homo sapiens, UniProt Q03431); experiment: cAMP stimulation in COS-7 cells expressing hP1R-delNt; conditions: for EC50 / cAMP EMax(obs.): hP1R-delNT; for cAMP EMax(obs.): basal 9.5 ± 1.3, asterisk = plateau not attained
T2 construct: expressed in transfected cells; host or cells: COS-7 (transient, FuGENE 6)
T2 sequence (Q03431 with tags, fused parts or gaps limits assumed): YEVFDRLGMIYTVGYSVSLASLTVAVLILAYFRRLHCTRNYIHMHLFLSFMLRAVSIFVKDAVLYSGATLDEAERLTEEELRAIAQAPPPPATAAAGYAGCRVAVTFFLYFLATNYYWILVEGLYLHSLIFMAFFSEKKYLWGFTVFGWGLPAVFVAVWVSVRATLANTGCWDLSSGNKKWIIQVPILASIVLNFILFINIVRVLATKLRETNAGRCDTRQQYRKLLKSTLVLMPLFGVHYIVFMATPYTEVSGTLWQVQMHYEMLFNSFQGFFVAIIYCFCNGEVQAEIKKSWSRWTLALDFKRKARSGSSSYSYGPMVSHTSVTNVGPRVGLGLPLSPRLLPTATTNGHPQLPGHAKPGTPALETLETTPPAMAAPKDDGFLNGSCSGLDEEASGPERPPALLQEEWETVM
Protocol: as §1, §2, §3
The possibility that the activity-enhancing effects of the Aib substitutions at positions 1 and 3 were mediated through the juxtamembrane (J) region of the receptor was investigated in COS-7 cells transiently transfected with P1R-delNt. P1R-delNt was a truncated P1R that lacked most of the amino-terminal extracellular domain.

Compound	cAMP EMax ([1]; P1R-WT)	EC50 [1]	cAMP EMax(obs.) [1]	increase in IP formation ([2]; P1R-WT)	PLC EMAX(obs.) [2]	EC50 [2]	cAMP potency, fold weaker on P1R-delNt than P1R-WT [3]	EC50 [3]	cAMP EMax(obs.) [3]	PLC potency, fold more potent than [M]PTH(1-14) ([2]; P1R-WT)	cAMP EMax ([3]; P1R-delNt)	cAMP potency, fold more potent than [M]PTH(1-14) ([3]; P1R-delNt)
CCCC[C@H](NC(=O)[C@H](CCCNC(=N)N)NC(=O)[C@H](CCC(=O)O)NC(=O)[C@@H](NC(=O)[C@H](CO)NC(=O)[C@H](C)NC(=O)[C@H](CC(C)C)NC(=O)[C@H](Cc1c[nH]cn1)NC(=O)[C@H](CCCCN)NC(=O)CNC(=O)[C@H](CC(C)C)NC(=O)[C@H](CC(N)=O)NC(=O)[C@H](Cc1c[nH]cn1)NC(=O)[C@H](CCCC)NC(=O)[C@H](CC(C)C)NC(=O)[C@H](CCC(N)=O)NC(=O)[C@@H](NC(=O)[C@H](CCC(=O)O)NC(=O)[C@H](CO)NC(=O)[C@@H](NC(=O)[C@H](C)N)C(C)C)[C@@H](C)CC)C(C)C)C(=O)N[C@@H](CCC(N)=O)C(=O)N[C@@H](Cc1c[nH]c2ccccc12)C(=O)N[C@@H](CC(C)C)C(=O)N[C@@H](CCCNC(=N)N)C(=O)N[C@@H](CCCCN)C(=O)N[C@@H](CCCCN)C(=O)N[C@@H](CC(C)C)C(=O)N[C@@H](CCC(N)=O)C(=O)N[C@@H](CC(=O)O)C(=O)N[C@H](C(=O)N[C@@H](Cc1c[nH]cn1)C(=O)N[C@@H](CC(N)=O)C(=O)N[C@@H](Cc1ccc(O)cc1)C(N)=O)C(C)C [PTH(1-34), [Nle^8,21, Tyr^34]PTH(1-34)amide, reference compound]	240±50 picomole/well	1.4 ± 0.7 nM	240 ± 50 pmole/well	4 fold	4.2 ± 0.6 foldxbasal	17 ± 2 nM	~500 fold	680 ± 110 nM	220 ± 30 pmole/well	–	–	–
CC[C@H](C)[C@H](NC(=O)[C@H](CCC(=O)O)NC(=O)C(C)(C)NC(=O)[C@@H](NC(=O)C(C)(C)N)C(C)C)C(=O)N[C@@H](CCC(N)=O)C(=O)N[C@@H](CC(C)C)C(=O)N[C@@H](CCSC)C(=O)N[C@@H](Cc1c[nH]cn1)C(=O)N[C@@H](CCC(N)=O)C(N)=O [[Aib^1,3,M]PTH(1-10), [Aib^1,3,Gln^10]PTH(1-10)] (H-[Aib]V[Aib]EIQLMHQ-NH2)	–	–	120 ± 10 pmole/well	–	–	–	–	–	84 ± 4 pmole/well	–	–	–
H-AVSEIQLMHNLGKH-NH2 [PTH(1-14), reference compound]	–	–	140 ± 30 pmole/well	–	–	–	–	–	110 ± 10 pmole/well	–	–	–
CC[C@H](C)[C@H](NC(=O)[C@H](CCC(=O)O)NC(=O)[C@H](C)NC(=O)[C@@H](NC(=O)[C@H](C)N)C(C)C)C(=O)N[C@@H](CCC(N)=O)C(=O)N[C@@H](CC(C)C)C(=O)N[C@@H](CCSC)C(=O)N[C@@H](Cc1c[nH]cn1)C(=O)N[C@@H](CCC(N)=O)C(=O)N[C@@H](CCCCNC(=N)N)C(=O)N[C@@H](C)C(=O)N[C@@H](CCCCN)C(=O)N[C@@H](Cc1c[nH]c2ccccc12)C(N)=O [[M]PTH(1-14), [Ala^3,12,Gln^10,Har^11,Trp^14]PTH(1-14)amide, reference compound] (H-AVAEIQLMHQ[hArg]AKW-NH2)	–	–	240 ± 50 pmole/well	4 fold	3.9 ± 0.5 foldxbasal	–	–	–	220 ± 20 pmole/well	–	–	–
CC[C@H](C)[C@H](NC(=O)[C@H](CCC(=O)O)NC(=O)C(C)(C)NC(=O)[C@@H](NC(=O)C(C)(C)N)C(C)C)C(=O)N[C@@H](CCC(N)=O)C(=O)N[C@@H](CC(C)C)C(=O)N[C@@H](CCSC)C(=O)N[C@@H](Cc1c[nH]cn1)C(=O)N[C@@H](CCC(N)=O)C(=O)N[C@@H](CCCCNC(=N)N)C(=O)N[C@@H](C)C(=O)N[C@@H](CCCCN)C(=O)N[C@@H](Cc1c[nH]c2ccccc12)C(N)=O [[Aib^1,3,M]PTH(1-14), AibValAibGluIleGlnLeuMetHisGlnHarAlaLysTrp] (H-[Aib]V[Aib]EIQLMHQ[hArg]AKW-NH2)	–	1.2 ± 0.6 nM	240 ± 40 pmole/well	4 fold	4.3 ± 0.6 foldxbasal	71 ± 9 nM	–	0.73 ± 0.16 nM	250 ± 20 pmole/well	66 fold	250±20 picomole/well	55 fold
CC[C@H](C)[C@H](NC(=O)[C@H](CCC(=O)O)NC(=O)C(C)(C)NC(=O)[C@@H](NC(=O)C(C)(C)N)C(C)C)C(=O)N[C@@H](CCC(N)=O)C(=O)N[C@@H](CC(C)C)C(=O)N[C@@H](CCSC)C(=O)N[C@@H](Cc1c[nH]cn1)C(=O)N[C@@H](CCC(N)=O)C(=O)N[C@@H](CCCCNC(=N)N)C(N)=O [[Aib^1,3,M]PTH(1-11), AibValAibGluIleGlnLeuMetHisGlnHar] (H-[Aib]V[Aib]EIQLMHQ[hArg]-NH2)	–	–	190 ± 40 pmole/well	–	–	–	–	–	220 ± 20 pmole/well	–	–	–
